In patent US4855284A, “Calcium and magnesium complexes of phytohemagglutinin-polyheteroglycans, their preparation and pharmaceutical formulations” (Intex Pharmazeutische Produkte AG, priority 1985, dated 1989):

How the values were obtained:
[1] = system: edema induced by carrageen in the rat paw; test: carrageen rat paw test (Winter), antiinflammatory action; format: in vivo, rat (female, CFY strain); details: 10 mg/kg oral
[2] = system: ulcers and mucosal edema in the stomach; test: alcohol ulcer test (Robert), cytoprotective action; format: in vivo, Wistar rats; details: oral 500 mg/kg, 10 animals
Method: The cytoprotective action was tested by the alcohol ulcer test of A. J. E. Robert and coworkers, Am. J. Physiol. […] Liver Physiol. […] Usually, Wistar rats in groups with 10 animals in each are kept without food for 1 day and then treated once through a stomach tube with 1 to 2 ml of anhydrous ethanol which contains 0.5% hydrochloric acid.
After the death of the animals, the length of the resulting ulcers and the size of the resulting mucosal edema in the stomach are measured and compared with control animals not treated with the product. A basic aluminum complex of sucrose polysulfate (sucralfate, see below) was used for comparison.

COc1ccc2c(c1)c(CC(=O)O)c(C)n2C(=O)c1ccc(Cl)cc1 [Indomethacin]
Inhibition in % (of swelling) [1]: 46%

Sucralfate
Inhibition in %, Edema [2]: 79%
Inhibition in %, Ulcer [2]: 56%
